From patent US3958014A, “Process for preparing injection-purpose fluorocarbon emulsion capable of carrying oxygen” (The Green Cross Corporation, priority 1970, dated 1976)

What was measured:
laboratory animal = assay: toxicity on injection of fluorocarbon emulsion into veins; format: in vivo, laboratory animals; settings: emulsion injected into the veins
Description: (§1) The present invention is specific in a number of aspects both as to the nature of materials used and the particle sizes and the like, of the resulting emulsion. These parameters were not arrived at casually but rather were determined through a systematic course of investigations which are discussed below. Parameters not expressly discussed below will be apparent to the skilled worker and appropriate conditions will be appreciated. Fluorocarbon - The sole fluorocarbons applicable to the present invention are perfluorodecalin or perfluoromethyldecalin or their mixture. A surfactant or emulsifying agent is also used and surfactant capable of emulsifying and stabilizing these fluorocarbons is egg yolk lecithin and preferably in an amount of from about 3 W/V % to 5 W/V % based on emulsion. There are a number of good reasons for the specificity of the fluorocarbon compounds that are useful.

[1] = accumulation of intravenously injected fluorocarbon in liver and spleen; format: in vivo, laboratory animals; settings: for fluorocarbon administered remaining in the organs (liver and spleen): 8 weeks from administration
Description: as §1
On the other hand when an emulsion of perfluorodecalin and perfluoromethyldecalin is injected into the veins, of laboratory animals their accumulated in the animal's liver and spleen is very small. For example, perfluorodecalin is as low as zero % and perfluoromethyldecalin is 1.5% even after 8 weeks.

Molecule | toxicity (laboratory animal) | accumulation in the animal's liver and spleen ([1]; i.v. emulsion) | fluorocarbon administered remaining in the organs (liver and spleen) ([1]; i.v. emulsion) | lung hazard (laboratory animal) | accumulation in the animal's liver and spleen ([1]; in vivo, iv)
FC(F)(F)C(F)(F)C(F)(F)C(F)(F)N(C(F)(F)C(F)(F)C(F)(F)C(F)(F)F)C(F)(F)C(F)(F)C(F)(F)C(F)(F)F [FC-43, perfluorotributylamine] | the toxicity resulting from the accumulation appears | most of these fluorocarbons are accumulated in the animal's liver and spleen | up to 40% | – | –
FC(F)(F)C(F)(F)C(F)(F)C(F)(F)C1(F)OC(F)(F)C(F)(F)C1(F)F (centres unmarked) [FX-80, perfluorobutyltetrahydrofuran] | its toxicity is quite high | – | – | a remarkable lung hazard appears | –
FC(OC(F)(F)C(F)(OC(F)(F)C(F)(OC(F)(F)C(F)(OC(F)(F)C(F)(F)C(F)(F)F)C(F)(F)F)C(F)(F)F)C(F)(F)F)C(F)(F)F (centres unmarked) [Freon E4, 2-monohydro-nonacosafluoro3,6,9,12-tetraoxa-5,8,11-trimethylpentadecane] | the toxicity resulting from the accumulation appears | most of these fluorocarbons are accumulated in the animal's liver and spleen | up to 40% | – | –
FC1(F)C(F)(F)C(F)(F)C2(F)C(F)(F)C(F)(F)C(F)(F)C(F)(F)C2(F)C1(F)F (centres unmarked) [perfluorodecalin] | – | – | – | – | very small
perfluoromethyldecalin | – | very small | 1.5% | – | –
